Legend:
Test in all cases: relative viability (nuclei count vs DMSO), 5 days (fraction); higher = more cells survive
[1] = compound: C[C@@H](C(=O)N[C@@H](C1CCCCC1)C(=O)N2CCC[C@H]2C(=O)N[C@@H]3[C@@H](CC4=CC=CC=C34)OCC#CC#CCO[C@@H]5CC6=CC=CC=C6[C@@H]5NC(=O)[C@@H]7CCCN7C(=O)[C@H](C8CCCCC8)NC(=O)[C@H](C)NC)NC [AZD5582]
Method in brief: (§1)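 Acceptance criteria were a control CV below 25% and at least one doubling per plate. Lung cancer cell lines in 1536-well plates got five library-drug doses (not always all listed) √10 apart by pinning and were left 5 days with no medium change. Viability divides treated-well nuclei by vehicle-well nuclei and is the median across plates. Nuclei were counted by MetaXpress from 4× Hoechst images.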

[2] = compound: Cn1nnc2c(C(N)=O)ncn2c1=O [Temozolomide]
Method in brief: as §1

[3] = compound: C[C@@H](C(=O)N[C@@H](C1CCCCC1)C(=O)N2CCC[C@H]2C(=O)N[C@@H]3[C@@H](CC4=CC=CC=C34)OCC#CC#CCO[C@@H]5CC6=CC=CC=C6[C@@H]5NC(=O)[C@@H]7CCCN7C(=O)[C@H](C8CCCCC8)NC(=O)[C@H](C)NC)NC [AZD5582] + CC1(C)CCC(c2ccc(Cl)cc2)=C(CN2CCN(c3ccc(C(=O)NS(=O)(=O)c4ccc(N[C@H](CCN5CCOCC5)CSc5ccccc5)c(S(=O)(=O)C(F)(F)F)c4)cc3)CC2)C1 [Navitoclax] (partner 0.5 µM)
Method in brief: (§2)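 For relative viability, nuclei counts in treated wells were divided by those in vehicle wells. Lung cancer cell lines had been pin-tool dosed in 1536-well plates the day after seeding and cultured for 5 days, then fixed and stained in one step (final 0.05% Triton X-100, 1% formaldehyde, 1 ug/ml Hoechst) and imaged at 4×. Doses were one drug alone or a fixed anchor-drug dose plus five library-drug doses (not always all listed) in √10 steps, and values are duplicate-plate medians.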

[4] = compound: C[C@@H](C(=O)N[C@@H](C1CCCCC1)C(=O)N2CCC[C@H]2C(=O)N[C@@H]3[C@@H](CC4=CC=CC=C34)OCC#CC#CCO[C@@H]5CC6=CC=CC=C6[C@@H]5NC(=O)[C@@H]7CCCN7C(=O)[C@H](C8CCCCC8)NC(=O)[C@H](C)NC)NC [AZD5582] + COc1cc2c(Oc3ccc(NC(=O)C4(C(=O)Nc5ccc(F)cc5)CC4)cc3F)ccnc2cc1OCCCN1CCOCC1 [Foretinib] (partner 0.25 µM)
Method in brief: as §2

Cell Line	relative viability ([1]; 0.001581 µM)	relative viability ([1]; 0.005 µM)	relative viability ([1]; 0.01581 µM)	relative viability ([1]; 0.05 µM)	relative viability ([2]; 0.2 µM)	relative viability ([2]; 0.6325 µM)	relative viability ([2]; 2 µM)	relative viability ([2]; 6.325 µM)	relative viability ([2]; 20 µM)	relative viability ([3]; first compound 0.001581 µM)	relative viability ([3]; first compound 0.005 µM)	relative viability ([3]; first compound 0.01581 µM)	relative viability ([3]; first compound 0.05 µM)	relative viability ([4]; first compound 0.001581 µM)	relative viability ([4]; first compound 0.005 µM)	relative viability ([4]; first compound 0.01581 µM)	relative viability ([4]; first compound 0.05 µM)
201T	1.03	1.15	0.971	1.21	0.978	1	1.01	0.961	0.977	1.21	1.23	1.12	1.31	1.09	1.43	1.12	1.45
A549	0.876	1.01	0.928	0.999	1.04	1.02	0.986	0.913	0.998	1.24	1.26	1.2	1.14	0.821	1.13	0.938	1.14
A-427	0.917	0.971	0.882	0.721	1.04	0.996	1.03	0.713	0.46	0.779	0.831	0.896	0.756	0.986	0.881	1.09	0.769
ABC-1	0.898	1.03	0.767	0.936	1.07	0.925	1.08	0.958	1.02	–	–	–	–	0.875	1.11	1.05	0.852
BEN	0.926	1.01	1.05	0.828	0.956	0.94	1.03	0.813	0.766	0.0668	0.0512	0.0565	0.0544	0.634	0.751	0.627	0.415
CAL-12T	0.647	0.724	0.784	0.551	0.908	1.04	0.959	0.95	0.95	–	0.531	1.26	0.854	0.821	0.772	1.06	0.732
COR-L23	1.02	1.11	0.966	1.03	1.19	1.04	1.05	1.04	0.955	0.963	1.07	1	1.22	0.963	0.887	0.87	1.1
COR-L 105	0.936	1.11	0.876	1.02	0.895	1.02	0.993	0.883	0.507	0.8	0.657	0.746	0.813	1.02	1.32	0.888	1.16
Calu-6	0.83	0.724	0.989	0.573	1.08	1	1.07	0.954	0.99	0.718	0.635	0.871	0.467	0.695	0.523	0.826	0.437
ChaGo-K-1	0.978	1.02	0.971	0.975	1.06	0.983	1.08	0.933	0.928	0.977	1.18	0.797	0.994	0.882	0.9	0.83	1.1
EBC-1	0.867	0.95	0.964	0.948	0.997	1.01	1.06	0.917	1.09	0.394	0.408	0.4	0.373	0.098	0.101	0.11	0.107
EKVX	0.957	1.13	0.794	1.01	0.618	0.97	0.967	0.921	0.66	0.878	1.01	0.798	0.959	0.691	0.932	0.553	0.612
EMC-BAC-2	0.835	0.993	0.791	0.891	1.07	1.07	1.03	0.943	1	1.07	0.984	1.15	0.62	0.867	0.809	1.02	0.412
EPLC-272H	0.263	–	0.55	0.116	0.98	0.972	0.997	0.859	0.677	0.608	0.743	1.05	0.208	0.0672	–	0.546	0.0632
H3255	0.94	1	0.862	0.831	–	0.96	0.993	0.884	0.231	0.479	0.59	0.375	0.213	0.868	0.796	0.741	0.772
HARA	0.974	1.1	0.746	0.662	0.979	1.02	1.05	0.886	0.831	1.11	1.07	1.14	1.12	0.858	0.918	0.904	0.639
HCC-15	0.862	0.933	0.739	0.847	1.12	1.01	1	0.996	1.07	0.629	0.675	0.675	0.619	0.74	0.805	0.959	0.75
HCC-44	0.822	0.724	0.872	0.483	1.02	0.986	0.987	0.999	1.01	0.919	0.692	1.01	0.581	–	–	–	–

— the supplement of paper PMC10307832
